Reference: patent publication US20220168193A1, “FLEXIBLE METAL PATCH HAVING ANTIOXIDANT ACTIVITY AND BRIGHTENING EFFECT AND METHOD FOR USING SAME” (LABNPEOPLE CO., LTD., priority 2019, published 2022)

Assay: DPPH free radical scavenging activity test
Assay type: biochemical
Details: for DPPH free radical scavenge activity (%) (mean ± standard deviation): 0.2 mM DPPH 1:1, 30 min
Experimental: To evaluate the DPPH free radical scavenging activity of the biodegradable metal of the present invention, samples were provided to the Korea Testing & Research Institute and the test thereof was performed in a manner described below by the Korea Testing & Research Institute at the request of the inventors.
a. Test substance • Magnesium patch with a purity of 95% or more (See FIG. 1 in which the patch is provided with microneedles that are not bent). • The sample used for the test is a sheet shape (dimensions: 2.6 mm×2.4 mm, thickness 0.1 t) made of Mg with a purity of 95% or more and including unavoidable impurities generated during manufacturing thereof.
b. Positive control • L-ascorbic acid: Sigma-Aldrich Corporation, Lot No. SLBR2586V
c. Etc. • 2,2-Diphenyl-1-picrylhydrazyl (DPPH): Sigma-Aldrich Corporation, Lot No. STBH0044 • Methanol: JINSEI, Lot No. 2016G2012
a. Preparation of test substance: The provided test substance was used without conversion of purity. Methanol was used to adjust the concentration.
After weighing L-ascorbic acid, it was prepared to have a predetermined concentration using methanol.
DPPH was prepared to have a concentration of 0.2 mM using methanol.
In a 96-well plate, each of the preparations (test substance and positive control substance) having different concentrations was mixed with a combination of 0.2 mM DPPH and methanol in a mixing ratio of 1:1.
After reacting at room temperature for 30 minutes in a light-shielding state, centrifugation was performed to obtain a supernatant, and absorbance was measured at a wavelength of 517 nm.
The free radical scavenger activity (%) of DPPH was calculated using Equation 1 below.
DPPH radical scavenging activity(%)=1−(A/B)×100 <Equation 1>
In Equation 1, A is the absorbance of the test substance, and B is the absorbance of the blank sample.
The result of each test was measured three times to obtain the mean value and standard deviation, and statistical analysis was performed using the SPSS statistical program (Ver. 19.0). First, after performing Levene's test, a one-way ANOVA test was performed. When significance was confirmed among the test groups, a post-hoc test was performed depending on the presence or absence of homogeneity of variances (when the variances are homogeneous, Duncan's multiple test was performed whereas when the variances were heterogeneous, Dunnett's T3 was performed).

- IC50 (concentration at which 50% activity is exhibited), DPPH scavenging (methanol solution): 0.0012%
SMILES: O=C1O[C@H]([C@@H](O)CO)C(O)=C1O [L-ascorbic acid]
- DPPH free radical scavenge activity (%) (mean ± standard deviation) (concentration 0.0005%): 20.96%
- DPPH free radical scavenge activity (%) (mean ± standard deviation) (concentration 0.001%): 40.38%
- DPPH free radical scavenge activity (%) (mean ± standard deviation) (concentration 0.0015%): 65.57%
- DPPH free radical scavenge activity (%) (mean ± standard deviation) (concentration 0.002%): 83.24%
